Test results as given in paper PMC10033409, “Autoregulation of GPCR signalling through the third intracellular loop” (Nature, 2023).
Several values for one entry are separate records, joined by “and”; a condition that tells them apart may be missing. Equal entries are not always repeated. Structures can show the parent of a compound that is named as a salt. Where two headings read alike, the source gives them in different places.

How the values were obtained:
β2AR [1] = experiment: cAMP accumulation (cAMP-Glo), β2AR; assay type: cell-based, human; details: for cAMP response (Average): β2AR L258Azi
β2AR [2] = details: for competition binding curve vs isoproterenol (Extended Data Figure 3M), Fit: fitted curve; for competition binding curve vs isoproterenol (Extended Data Figure 3M): replicates 1-3 and Average
Procedure: Reactions were equilibrated, washed, and measured following the same procedure listed above for the radioligand antagonist-binding assay. […] Weighted averages of these IC50 values were used for comparison purposes and inhibition constant (Ki) calculations. […] Binding assays were performed in technical duplicates. Three biological replicates were collected with different membrane preparations for each replicate.

[3] = Sensor + Gs-peptide, Isoproterenol 1.00E-03 M
[4] = Sensor + Gs-peptide, Isoproterenol 1.00E-04 M
[5] = Sensor + Gs-peptide, Isoproterenol 1.00E-05 M
[6] = Sensor + Gs-peptide, Isoproterenol 1.00E-06 M
[7] = Sensor + Gs-peptide, Isoproterenol 1.00E-07 M
[8] = Sensor + Gs-peptide, Isoproterenol 1.00E-08 M
[9] = Sensor + Gs-peptide, Isoproterenol 1.00E-09 M
[10] = Sensor + Gs-peptide, Isoproterenol 1.00E-10 M
[11] = Sensor, Isoproterenol 1.00E-03 M
[12] = Sensor, Isoproterenol 1.00E-05 M
[13] = Sensor, Isoproterenol 1.00E-06 M
[14] = Sensor, Isoproterenol 1.00E-07 M
[15] = Sensor, Isoproterenol 1.00E-08 M
[16] = Sensor, Isoproterenol 1.00E-09 M

With `CC(C)NCC(O)c1ccc(O)c(O)c1` (stereo not drawn) [Isoproterenol, isoproterenol (+)-bitartrate salt] the “Emax (Average)” value (β2AR [1]; β2AR L258 (L258Azi), fit of the isoproterenol concentration-response of Extended Data Figure 3B) was 1.23E+05, the “cAMP response (Average)” value (β2AR [1]; Log (Isoproterenol (M)) -4) was 1.30E+05 and the “cAMP response (Average)” value (β2AR [1]; Log (Isoproterenol (M)) -5) was 1.30E+05. The “cAMP response (Average)” value (β2AR [1]; Log (Isoproterenol (M)) -6) was 1.28E+05, the “cAMP response (Average)” value (β2AR [1]; Log (Isoproterenol (M)) -7) was 1.04E+05 and the “cAMP response (Average)” value (β2AR [1]; Log (Isoproterenol (M)) -7.52288) was 1.08E+05. For the same compound, the “cAMP response (Average)” value (β2AR [1]; Log (Isoproterenol (M)) -8) was 1.10E+05, the “cAMP response (Average)” value (β2AR [1]; Log (Isoproterenol (M)) -8.52288) was 6.79E+04 and the “cAMP response (Average)” value (β2AR [1]; Log (Isoproterenol (M)) -9) was 4.10E+04. The “cAMP response (Average)” value (β2AR [1]; Log (Isoproterenol (M)) -9.52288) was 2.28E+04, the “cAMP response (Average)” value (β2AR [1]; Log (Isoproterenol (M)) -10) was -8.91E+03 and the “cAMP response (Average)” value (β2AR [1]; Log (Isoproterenol (M)) -10.5229) was -2.86E+04. For the same compound, the “cAMP response (Average)” value (β2AR [1]; Log (Isoproterenol (M)) -11) was -9.58E+03, the “cAMP response (Average)” value (β2AR [1]; Log (Isoproterenol (M)) -12) was -4.68E+03 and the “cAMP response (Average)” value (β2AR [1]; Log (Isoproterenol (M)) -13) was 2.29E+03. The “competition binding curve vs isoproterenol (Extended Data Figure 3M), Fit” value (“competition binding curve vs isoproterenol … Fit” for short) (β2AR [2]; [3]) was 1.12, the “competition binding curve vs isoproterenol (Extended Data Figure 3M)” value (β2AR [2]; [3]) was 0.73 and -0.00169 and the “competition binding curve vs isoproterenol … Fit” value (β2AR [2]; [4]) was 1.39. For the same compound, the “competition binding curve vs isoproterenol (Extended Data Figure 3M)” value (β2AR [2]; [4]) was 1.06 and 1.58 and 0.34 and 1.27, the “competition binding curve vs isoproterenol … Fit” value (β2AR [2]; [5]) was 3.99 and the “competition binding curve vs isoproterenol (Extended Data Figure 3M)” value (β2AR [2]; [5]) was 5.22 and 6.17 and 4.29 and 5.19. For the same compound, the “competition binding curve vs isoproterenol … Fit” value (β2AR [2]; [6]) was 22.44, the “competition binding curve vs isoproterenol (Extended Data Figure 3M)” value (β2AR [2]; [6]) was 22.22 and 23.42 and 21.91 and 21.33 and the “competition binding curve vs isoproterenol … Fit” value (β2AR [2]; [7]) was 61.20. The “competition binding curve vs isoproterenol (Extended Data Figure 3M)” value (β2AR [2]; [7]) was 61.19 and 63.45 and 61.62 and 58.48, the “competition binding curve vs isoproterenol … Fit” value (β2AR [2]; [8]) was 85.17 and the “competition binding curve vs isoproterenol (Extended Data Figure 3M)” value (β2AR [2]; [8]) was 85.29 and 86.69 and 86.58 and 82.61. The “competition binding curve vs isoproterenol … Fit” value (β2AR [2]; [9]) was 97.00, the “competition binding curve vs isoproterenol (Extended Data Figure 3M)” value (β2AR [2]; [9]) was 96.71 and 101.87 and 95.55 and 92.70 and the “competition binding curve vs isoproterenol … Fit” value (β2AR [2]; [10]) was 99.03. The “competition binding curve vs isoproterenol (Extended Data Figure 3M)” value (β2AR [2]; [10]) was 97.96 and 100.63 and 97.15 and 96.10, the “competition binding curve vs isoproterenol … Fit” value (β2AR [2]; [11]) was 0.48 and the “competition binding curve vs isoproterenol (Extended Data Figure 3M)” value (β2AR [2]; [11]) was 0.69 and 0.84 and -0.72 and 0.27. The “competition binding curve vs isoproterenol (Extended Data Figure 3M)” value (β2AR [2]; Sensor, Isoproterenol 1.00E-04 M) was 1.32 and 1.71 and -0.50 and 0.84, the “competition binding curve vs isoproterenol … Fit” value (β2AR [2]; [12]) was 5.70 and the “competition binding curve vs isoproterenol (Extended Data Figure 3M)” value (β2AR [2]; [12]) was 7.08 and 7.24 and 5.39 and 6.57. For the same compound, the “competition binding curve vs isoproterenol … Fit” value (β2AR [2]; [13]) was 30.01, the “competition binding curve vs isoproterenol (Extended Data Figure 3M)” value (β2AR [2]; [13]) was 30.57 and 29.08 and 29.48 and 29.71 and the “competition binding curve vs isoproterenol … Fit” value (β2AR [2]; [14]) was 74.45. For the same compound, the “competition binding curve vs isoproterenol (Extended Data Figure 3M)” value (β2AR [2]; [14]) was 73.61 and 76.73 and 72.17 and 74.17, the “competition binding curve vs isoproterenol … Fit” value (β2AR [2]; [15]) was 96.90 and the “competition binding curve vs isoproterenol (Extended Data Figure 3M)” value (β2AR [2]; [15]) was 94.98 and 101.48 and 95.93 and 97.46. For the same compound, the “competition binding curve vs isoproterenol … Fit” value (β2AR [2]; [16]) was 100.28, the “competition binding curve vs isoproterenol (Extended Data Figure 3M)” value (β2AR [2]; [16]) was 98.04 and 104.41 and 99.80 and 100.75 and the “competition binding curve vs isoproterenol … Fit” value (β2AR [2]; Sensor, Isoproterenol 1.00E-10 M) was 100.63.
